{
  "source": "paper PMC9032346",
  "about": "“Identification of functionally important domains of human cytomegalovirus gO that act after trimer binding to receptors” (PLoS Pathogens, 2022)",
  "key": {"rabbits": {"system": "rabbits", "experiment": "Immunization of rabbits with ova-conjugated peptides", "type": "in vivo, New Zealand White rabbit", "conditions": "peptides conjugated onto ovalbumin, sera after 3 rounds of immunization", "description": "An overlapping peptide library spanning the entire length HCMV gO polypeptide from strain TR was obtained from Genscript Biotech, Piscataway, NJ. The peptides consisted of 20 amino acids in length with 7 amino acid overlap and a biotin moiety conjugated to the C-terminus. A panel of 8 a.a. peptides overlapping by 7 a.a. and a biotin moiety conjugated to the C-terminus that were derived from the protein sequences: 248-[…]-267 or 326-[…]-345 (S2 Table) were also obtained from Genscript Biotech. Peptides derived from the gO polypeptide sequence 235-[…]-267 (peptide 19/20 from overlapping library) and 326-[…]-345 (peptide 26 from overlapping library) were synthesized conjugated onto ovalbumin (ova). These ova-peptides were used to produce New Zealand White rabbit polyclonal sera by priming rabbits with ova-peptides in Freund’s adjuvant then boosting the rabbits with ova-peptides in TiterMax Gold adjuvant (Sigma, St. Louis, MO). Rabbit antibodies specific for peptide 20, 26 and ovalbumin were purified using peptides ova-20 and ova-26 or ova (without peptides) by coupling these proteins to AminoLink (Thermo Scientific)."}, "[1]": {"system": "Abs present in HCMV seropositive human serum", "experiment": "ELISA of biotinylated gO peptides with pooled human transplant sera", "type": "binding", "conditions": "biotin peptides 0.5 mM on streptavidin plates, pool of 5 sera diluted to NT100", "experimental": "Fig 5 gO peptides recognized by Abs present in HCMV seropositive human serum. The panel of gO peptides with C-terminal biotin tags were incubated in the wells of streptavidin-coated ELISA plates. The wells were washed and then incubated with a pool of 5 different human sera from transplant patients that had been diluted to the NT100 titers. The plates were washed and incubated with goat-anti human-IgG-HRP for 1 h at room temperature, washed, and incubated with Turbo-TMB substrate. Control conditions included no peptide plus human sera (red bar) and wells coated with soluble trimer (instead of peptides) and human sera (green bar). The absorbance values are indicated on the y-axis and the numbers of the individual gO peptides are indicated on the x-axis.\nFor cell-based ELISA assays, ARPE-19 epithelial or fibroblast cells in 96-well plates were fixed with 4% paraformaldehyde, washed with PBS supplemented with 0.1M glycine pH.7.2, then washed with PBS plus 2% BSA and incubated with soluble trimers or gH/gL complexes at 10 μg/ml (or 20 μg/ml in the case of gO-417) in PBS with 2% BSA at room temperature for 1 h. […] The colorometric reaction was stopped by adding 100 μl of 1M sulfuric acid to the wells and then the substrate development was read in a Molecular Dynamics precision plate reader at a wavelength of 450 nm."}, "[2]": {"system": "neutralizing Abs from human serum", "experiment": "Depletion of neutralizing Abs from human sera, read out by HCMV neutralization on ARPE-19", "type": "cell-based", "experimental": "Fig 7 gO peptides 20 and 26 deplete neutralizing Abs from human serum. (A) Pooled HCMV seropositive serum was diluted to (NT100) titers then incubated with either no protein, 1μg of soluble trimer, or gO peptides (with biotin): 20, 26, 32 or 33 (each at 0.5 mM) for 1 h at 37°C. […] The trimer was removed using nickel-agarose and peptides removed using streptavidin-agarose. The remaining Abs were tested in neutralization assays involving HCMV (BADrUL131) and ARPE-19 epithelial cells. The relative infectivity of HCMV after incubation with these sera was determined by counting GFP+ (infected) cells after 24 h of infection and compared to the numbers of infected cells following incubation of HCMV with similarly diluted sera from HCMV seronegative donors (sero-neg) Data was collected from three separate wells for each condition. (B and C) Two panels of 8 a.a. peptides with 7 a.a. overlap were derived from peptide 20 (B) or peptide 26 (C). These peptides were tested in depletion assays as in panel A. The relative infectivity of HCMV (BADrUL131) on ARPE-19 epithelial cells was determined and normalized to the level of HCMV infectivity with depletions performed with soluble trimer. Data was collected from a randomly selected field of the same surface area from each well.\nThese sera were then tested in HCMV neutralization assays as described above."}},
  "data": [
    {"sequence": "FRVPKYINGTKLKNTMRKLKRKQAPVKEQSEKK [Peptide 19/20, peptide containing all of peptides 19 and 20 (a.a. 235-267), conjugated onto ovalbumin]", "values": [
      {"measurement": "induction of gO-specific NAbs in rabbits", "setting": "rabbits", "value": "able to induce gO-specific NAbs"}
    ]},
    {"sequence": "TTTPYSPYTTSTALNVTTNA [Peptide 22, gO (TR) a.a; 274-293, C-terminal biotin; negative control in depletion]", "values": [
      {"measurement": "binding of IgG from human transplant sera", "setting": "[1]", "value": "did not bind substantial IgG"},
      {"measurement": "depletion of NAbs from human sera", "setting": "[2]; pooled sera at NT100, 0.5 mM biotin peptide", "value": "retained complete neutralizing capacity"}
    ]},
    {"sequence": "LRDLATWVYTTLRYRQNPFC [Peptide 26, gO (TR) a.a; 326-345, C-terminal biotin; also ova-conjugated for immunization]", "values": [
      {"measurement": "binding of IgG from human transplant sera", "setting": "[1]", "value": "binding higher quantities of IgG compared with other peptides"},
      {"measurement": "HCMV infectivity with sera after depletion", "setting": "[2]; pooled human transplant sera at NT100, 1 μg soluble trimer or 0.5 mM biotin peptide, 1 h 37°C, relative to seronegative sera, three wells", "value": 45, "unit": "%"},
      {"measurement": "induction of gO-specific NAbs in rabbits", "setting": "rabbits", "value": "able to induce gO-specific NAbs"}
    ]}
  ]
}
